As a reminder, the Ki is a dissociation constant, usually derived from enzyme kinetics or from competition with a known ligand. One may read the IC50 as the midpoint of a concentration-inhibition curve. The term EC50 denotes the midpoint of the concentration-response curve.

Data set [1] deals with duration of xylazine/ketamine-induced anesthesia. Put plainly: Xylazine/ketamine-induced anesthesia. The conditions noted are these: 0.25 h before anesthesia. The protocol: After loss of the righting reflex (i.e., when a mouse remained on its back and no longer spontaneously righted itself to a prone position), the duration of anesthesia was measured until its return as the endpoint.

Data set [2] has as its system PDE4H. To be noted: cited from earlier work.
In data set [3] the test system is PDE4. Also on record: method as in PMID 15476679. The conditions noted are these: cited from earlier work.
In data set [4] the test system is PDE4L. The conditions noted are these: cited from earlier work.
The subject of data set [5] is PDE4 subtypes (A~D). Also noted: method as in PMID 16458289. The conditions noted are these: cited from earlier work.
The conditions of data set [6]: cited from earlier work.
Data set [7] has as its system PDE4. As to the kind of experiment: Inhibition of PDE4 activity, two-step procedure and Lineweaver-Burk analysis. Format: biochemical, guinea pig. The protocol:
(§1) Activities of PDE1~5 in the homogenate of guinea pig lungs or hearts were measured by a two-step procedure according to the previous method, using cAMP with [^3H]-cAMP or cGMP with [^3H]-cGMP as substrates. […] The reagents and homogenate were mixed on ice, and the reaction was initiated by transferring the mixture to a water bath at 37°C. Following a 30-min incubation, the reaction was stopped by transferring the reaction vessel to a bath of boiling water for 3 min. After cooling on ice, 20 μl of a 1 mg/ml solution of Crotalus atrox snake venom was added to the reaction mixture, and the mixture was incubated at 37°C for 10 min. Unreacted [^3H]-cAMP or [^3H]-cGMP was removed by the addition of 500 μl of a 1-in-1 Tris-HCl (40 mM) buffer suspension of Dowex resin (1 × 8-200) with incubation on ice for 30 min. Each tube was then centrifuged at 3700 g for 2 min, and 150 μl of the supernatant was removed for liquid scintillation counting. […] The total protein in each fraction used was assayed according to a previous method. PDE activities are reported as nmol/mg/min.

The test system of data set [8] is high-affinity rolipram-binding sites (HARBSs) of guinea pig brain cell membranes. As to the kind of experiment: Displacement of 2 nM [3H]-rolipram from high-affinity rolipram-binding sites (PDE4H). To be noted: 2 nM [3H]-rolipram, 30°C, 1 h; read-out: EC50 (PDE4H) for displacing [3H]-rolipram binding. The protocol: When the above-mentioned guinea pigs were sacrificed, the whole brains were removed and homogenized with a glass/Teflon homogenizer (Glas-Col, Terre Haute, IN, USA) in 10 volumes of cold medium (pH 6.5) containing 20 mM Bis-Tris, 2 mM benzamidine, 2 mM EDTA, 50 mM sodium chloride, 0.1 mM PMSF, and 1 mM dithiothreitol. At 4°C, the homogenate was centrifuged at 170 g for 5 min to remove connective tissues and blood vessels. The suspended homogenate was then re-centrifuged at 40,000 g for 30 min to separate the cytosolic and particulate portions. The particulate portion was re-suspended in a suspension at a concentration of 400 mg/ml (wet weight/volume), after washing three times with homogenizing buffer. The particulate portion mainly consisted of cell membranes. […] Briefly, the reaction buffer consisted of 50 mM Tris-HCl and 5 mM MgCl2 (pH 7.5). […] After 1 h, the reaction was terminated by moving the reaction vessel into crushed ice. Then the reaction mixture was transferred onto Whatman GF/B glass-fiber filters, which were soaked in a 0.3% polyethyleneimine solution in a mini-funnel.

The test system of data set [9] is emesis. Also on record: method as in PMID 11114405. To be noted: ferrets; cited from earlier work.
For data set [10], the system named is xylazine/ketamine-induced anesthesia. Also on record: method as in PMID 11786486. The conditions noted are these: rats; cited from earlier work.
Data set [11] has as its system PDE3. As to the kind of experiment: Inhibition of PDE3 activity, two-step procedure. It is filed as biochemical. To be noted: homogenate of guinea pig lungs or hearts. The protocol: as §1
Data set [12] concerns PDE1. Put plainly: Inhibition of PDE1 activity, two-step procedure. It is filed as biochemical. To be noted: homogenate of guinea pig lungs or hearts. The protocol: as §1
The subject of data set [13] is ovalbumin-induced airway inflammation. Also on record: method as in PMID 21287361. The conditions noted are these: compared with the ovalbumin-induced group; H&E and alcian blue-PAS staining; cited from earlier work.

Consider `COc1ccc(C2CNC(=O)C2)cc1OC1CCCC1` (centres unmarked) [Rolipram, rolipram], for which the “effect on duration of xylazine/ketamine-induced anesthesia” value is listed as “dose-dependently shortened” in [1] (0.01~1 μmol/kg s.c.); “reversed the anesthesia” in data set [1] (0.01~1 μmol/kg s.c., listed as rolipram); “significantly shortened” in data set [1] (0.1 and 1 μmol/kg s.c.). Also, in data set [2], the PDE4H/PDE4L ratio was 0.01~0.001.

As to `COc1ccc(C2CC(=O)c3c(O)cc(O)cc3O2)cc1O` (centres unmarked) [hesperetin, 5,7,3'-trihydroxy-4'-methoxyflavanone], the “selectivity of PDE inhibition” value in [3] is “selectively inhibit PDE4 activity”.

For the compound `O=C(Nc1c(Cl)cncc1Cl)c1ccc(OC(F)F)c(OCC2CC2)c1` [roflumilast], in data set [2], the PDE4H value is recorded as 2.4 nM and the PDE4H/PDE4L ratio is 3. The PDE4L value in data set [4] is listed as 0.8 nM. Moreover, the “selectivity among PDE4 subtypes” value in data set [5] is “non-selective for these four PDE4 subtypes”. In addition, the “mean pre- and post-bronchodilator FEV1” value in [6] (patients with moderate-to-severe COPD, compared to placebo) is on record as “significantly improve”. Further, the “nausea, diarrhea, weight loss, and headaches” value in data set [6] (patients with moderate-to-severe COPD) is given as “more frequent”.

As for `CCCCOc1cc(CC2CNC(=O)N2)ccc1OC` (centres unmarked) [Ro 20-1724, 4-(3-butoxy-4-methoxybenzyl)-2-imidazolidinone, reference compound], the “mode of PDE4 inhibition” value in data set [7] (Lineweaver-Burk analysis, inhibitor 1~10 μM) is listed as “competitively inhibited”. Besides, the Ki in data set [7] (Lineweaver-Burk analysis, inhibitor 1~10 μM, substrate cAMP, read-out: dissociation constant for inhibitory binding (Ki), PDE4) came out at 8.1 ± 2.4 µM. Moreover, half-maximal inhibition in data set [7] (homogenate of guinea pig lungs or hearts) (IC50) was put at 4.3 ± 2.1 µM. Further, the EC50 in [8] is 0.087 ± 0.029 µM.

In the case of `Clc1cccc(Cl)c1N=C1NCCN1` [clonidine], the “effect on emesis induced by PDE4 inhibitors” value in data set [9] is “prevented emesis”.

For `CCOc1cc([C@@H](CS(C)(=O)=O)N2C(=O)c3cccc(NC(C)=O)c3C2=O)ccc1OC` [apremilast], the “efficacy in severe plaque-type psoriasis” value in [6] (oral) is “effective”.

Turning to `COc1cccc(Nc2c(C(N)=O)cnc3c(C)cc(S(=O)(=O)c4cccc(C(=O)N(C)C)c4)cc23)c1` [GSK256066], the “efficacy in trials in asthma” value in [6] (inhaled) is reported as “demonstrated efficacy”.

`CN1CC[C@]2(CCN3CCc4c(oc5ccccc45)[C@@H]3C2)N(C)C1=O.Cl` [MK-912]: the “effect on xylazine/ketamine-induced anesthesia” value in data set [10] was “reverse xylazine/ketamine-induced anesthesia”. The vomiting result in data set [9] is listed as “trigger vomiting”.

With `O=C(Nc1c(Cl)cncc1Cl)C(=O)c1cn(Cc2ccc(F)cc2)c2ccc(O)cc12` [AWD 12-281, N-(3,5-dichloro-pyrid-4-yl)-[1-(4-fluorobenzyl)-5-hydroxy-indole-3-yl]-glyoxylic acid amide], in data set [2], the PDE4H value was 104 nM and the PDE4H/PDE4L ratio result was “approximately 11”. The PDE4L value in [4] was 9.7 nM. The “efficacy in clinical trials for asthma and COPD” value in data set [6] is recorded as “lack of efficacy”.

`Cc1[nH]c(=O)c(C#N)cc1-c1ccncc1` [milrinone, reference compound] registered an IC50 in data set [11] of 2.5 ± 1.6 µM.

Turning to `CCOC(=O)C1=C[C@]2(CC)CCCN3CCc4c(n1c1ccccc41)[C@@H]32` [vinpocetin, Vinpocetine, reference compound], in data set [12], half-maximal inhibition (IC50) required 42.3 ± 5.8 µM.

In the case of `COc1ccc([C@]2(C#N)CC[C@@H](C(=O)O)CC2)cc1OC1CCCC1` [cilomilast], in data set [2], the PDE4H value was 117.8 nM and the PDE4H/PDE4L ratio is on record as 1. The PDE4L value in data set [4] is given as 120 nM. Moreover, the “selectivity among PDE4 subtypes” value in [5] was “higher potency for PDE4D compared to PDE4A and PDE4B”. For the same compound, the “tolerability: diarrhea and nausea” value in data set [6] (COPD phase III study, 15 mg twice daily over 6 months) was “higher frequencies of diarrhea and nausea than a placebo”.

With `COc1ccc([C@@H]2CC(=O)c3c(O)cc(O[C@@H]4O[C@H](CO[C@@H]5O[C@@H](C)[C@H](O)[C@@H](O)[C@H]5O)[C@@H](O)[C@H](O)[C@H]4O)cc3O2)cc1O` [hesperidin], the “effect on inflammatory cell infiltration and mucus hypersecretion in lung” value in [13] was “inhibit inflammatory cell infiltration and mucus hypersecretion”.

These data come from PMC3225327 (Journal of Biomedical Science, 2011).
